Measured values as given in paper PMC7395821 (Antiviral Research, 2020).

How the values were obtained:
eGFP-JEV [1] = assay: eGFP-JEV-based HTS assay in Huh7 cells; assay type: cell-based, Japanese encephalitis virus; settings: 96-well, cytotoxic and false positive drugs excluded
eGFP-JEV [2] = assay: eGFP expression in eGFP-JEV infected BHK-21 cells; assay type: cell-based, Japanese encephalitis virus; settings: BHK-21, eGFP-JEV MOI 0.1, two-fold dilutions, maximum 3 μM, 72 hpi
WT-JEV [3] = assay: Antiviral assay of WT-JEV in Huh7 cells, viral titer by plaque assay; settings: for EC50: Japanese encephalitis virus, Huh-7, read-out: EC50 (50% reduction of viral titer); for SI (selective index, ratio of CC50 to EC50): Huh7 cells
Cytotoxicity assay = assay type: cell-based; settings: human, Huh7 cells
JEV genome RNA = assay: Real-time RT-PCR of viral RNA in WT-JEV infected Huh7 cells; assay type: cell-based, Japanese encephalitis virus; settings: WT-JEV MOI 0.5, various dosages, qRT-PCR at 48 hpi
WT-JEV [4] = assay: Time-of-addition assay; assay type: cell-based, Japanese encephalitis virus; settings: Huh7, WT-JEV MOI 10, 5 μM, titers at 12 hpi

| SMILES | hit status after HTS and dose-dependent reconfirmation with eGFP-JEV (eGFP-JEV [1]) | EC50 (WT-JEV [3]) | CC50 at 48 h (Cytotoxicity assay) | viral RNA copies (JEV genome RNA) | also measured |
| --- | --- | --- | --- | --- | --- |
| OC(c1cc(C(F)(F)F)nc2c(C(F)(F)F)cccc12)C1CCCCN1 (centres unmarked) [Mefloquine] | potent inhibitor of JEV | – | – | – | – |
| C#C[C@@]1(O)[C@H](O)[C@@H](CO)O[C@H]1n1ccc2c(N)ncnc21 [NITD008] | – | – | – | – | effect on eGFP expression (eGFP-JEV [2]): dose-dependent inhibitory effects |
| CCCCCCCCCCCCCCCC[N+](C)(C)C [cetrimonium bromide] | newly discovered inhibitors of JEV | 2.23 µM | 7.88 µM | decreased in a dose-dependent manner | – |
| CCCCCCCCCCCCCCCC[n+]1ccccc1 [cetylpyridinium chlorid, cetylpyridinium chloride] | newly discovered inhibitors of JEV | – | – | decreased in a dose-dependent manner | – |
| Oc1c(Cl)cc(Cl)c(Cl)c1Cc1c(O)c(Cl)cc(Cl)c1Cl [hexachlorophene] | newly discovered inhibitors of JEV | 0.421 µM | 10 µM | – | SI (selective index, ratio of CC50 to EC50) (WT-JEV [3]): > 10 |
| CCOC(=O)C1=C(C)NC(C)=C(C(=O)OCC)C1c1ccccc1/C=C/C(=O)OC(C)(C)C [lacidipine] | identified as hits | – | – | – | – |
| NC(=O)N1CCC(CC(=O)N2CCC([C@H]3c4ncc(Br)cc4CCc4cc(Cl)cc(Br)c43)CC2)CC1 [lonafarnib] | newly discovered inhibitors of JEV | 0.982 µM | 11.4 µM | decreased in a dose-dependent manner | SI (selective index, ratio of CC50 to EC50) (WT-JEV [3]): > 10; effect on virus propagation, compound added pre-infection (-1 to 0 h) (WT-JEV [4]): no effect on virus propagation; reduction in viral titer, compound added during viral infection (0-1 h) (WT-JEV [4]): 60%; viral titers, compound added post infection (1, 2, 4, 6, 8 h) (WT-JEV [4]): significantly reduced |
| COC(=O)C1=C(C)NC(C)=C(C(=O)OCCN2CCN(C(c3ccccc3)c3ccccc3)CC2)C1c1cccc([N+](=O)[O-])c1 (centres unmarked) [manidipine] | identified as hits | – | – | – | – |
| COc1c(C)c2c(c(O)c1C/C=C(\C)CCC(=O)O)C(=O)OC2 [mycophenolic acid] | identified as hits | – | – | – | – |
| O=[N+]([O-])c1ccc(O)c2ncccc12 [nitroxoline] | newly discovered inhibitors of JEV | 2.48 µM | 9.29 µM | decreased in a dose-dependent manner | – |
| CC[C@@H]1/C=C(\C)C[C@H](C)C[C@H](OC)[C@H]2O[C@@](O)(C(=O)C(=O)N3CCCC[C@H]3C(=O)O[C@H](/C(C)=C/[C@@H]3CC[C@H](Cl)[C@H](OC)C3)[C@H](C)[C@@H](O)CC1=O)[C@H](C)C[C@@H]2OC [pimecrolimus] | identified as hits | – | – | – | – |
| CC(C)OC(=O)[C@H](C)N[P@](=O)(OC[C@H]1O[C@@H](n2ccc(=O)[nH]c2=O)[C@](C)(F)[C@@H]1O)Oc1ccccc1 [sofosbuvir] | active | – | – | – | – |
